Data from a melting point compilation (Tetko et al.; mined from patent text by program, amines drawn as free bases though some values may be those of a salt).

First: Cn1ccc(-c2sc(NC(=O)c3ccncc3)nc2-c2ccco2)cc1=O
Second: CC(=O)c1ccc(-n2c(-c3cc(-c4ccncc4)c(N4CCOCC4)s3)nc3ccccc3c2=O)cc1
The melting point of the first is higher: 280 to 282 °C for the first, 241 to 242 °C for the second.

First: COc1cc(/C=C/C(=O)Nc2ccccc2C(=O)O)ccc1OC1CCCC1
Second: CC(=O)c1cccnc1N(C)C1CCN(Cc2ccccc2)CC1
The melting point of the first is higher: 96 to 98 °C for the first, 93 to 94 °C for the second.

First: CCCS(=O)(=O)Oc1ccc(CO)c(Oc2ncc(C(F)(F)F)cc2Cl)c1
Second: Cc1noc(C)c1S(=O)(=O)n1c(COC(C)C(=O)O)cc2cc(Cl)ccc21 (centres undefined)
The melting point of the first is lower: 68.5 to 69.5 °C for the first, 110 to 112 °C for the second.

Compared with `CCc1nc(SC)nn1-c1ccc(N)cc1`, `COc1ccc(-c2nn3c(SC)nnc3c3ccccc23)cc1` is higher in melting point: 132 °C for the first, 218 to 220 °C for the second.

First: CN(C)C(=O)Sc1ccc2ncc([N+](=O)[O-])c(-c3ccccc3)c2c1
Second: CN1CCN(c2cccc3ccc(Nc4ncccc4[N+](=O)[O-])cc23)CC1
The melting point of the first is higher: 171 to 173 °C for the first, 128 to 129 °C for the second.

First: O=C(OC1COC(n2cc(CCN3C(=O)c4ccccc4C3=O)c(=O)[nH]c2=O)C(OC(=O)c2ccccc2)C1OC(=O)c1ccccc1)c1ccccc1 (centres undefined)
Second: O=C(NCc1ccc(F)cc1)c1nc2n(c(=O)c1OCc1ccccc1)CCN2Cc1ccccc1
The melting point of the first is lower: 124 °C for the first, 125 °C for the second.

Compared with `OCCOc1ccc(C(=S)c2ccc(-c3ccccc3)cc2)c(O)c1`, `Cc1oc(-c2ccccc2)nc1COc1ccc2c(-c3ccccc3)c(CO)oc2c1` is higher in melting point: 77 to 79 °C for the first, 152 to 153 °C for the second.

Compared with `COc1ccc(NC2=NC(C)(C)Cc3cc(OC)c4c(c32)CC(C)(C)O4)cc1`, `COc1ccc(-c2ccc3c(c2)c2cc(Cl)cnc2n3S(=O)(=O)c2ccccc2)cc1` is higher in melting point: 139 to 140 °C for the first, greater than 220 °C for the second.

First: Nc1nc(O)c2cc(CCc3ccc(C(=O)O)cc3)cnc2n1
Second: CCCCc1nc2ccc(O)cc2c(=O)n1Cc1ccc(-c2ccccc2-c2nnn[nH]2)cc1
The melting point of the first is higher: greater than 300 °C for the first, 212 to 214 °C for the second.

Compared with `CN1CCN(c2ccnc3c(NC(=O)c4c(Cl)cccc4Cl)cc(Cl)cc23)C1=O`, `O=C(NCc1cccnc1)c1ccc2n1Cc1ccccc1N(C(=O)Cc1ccc(Cl)cc1)C2` is lower in melting point: greater than 250 °C for the first, 83 °C for the second.

First: COc1ccc(OC)c2c1C(=O)C=C(SCCO)C2=O
Second: COc1ccc(Br)c2c1C(=O)CC2
The melting point of the first is lower: 117 to 118 °C for the first, 125 to 128 °C for the second.

First: CC(C)(C)OC(=O)N1CCc2c(n(CCO)c3cc(Cl)c(Cl)cc23)CC1
Second: CC(C)(C)OC(=O)Nc1sc(Cl)nc1Cl
The melting point of the first is higher: 130 to 133 °C for the first, 111 to 112 °C for the second.

First: CCOCCCOc1ccc(-c2ccc3c(c2)C=C(C(=O)Nc2ccc(CN(C)C4CCOCC4)cc2)CCS3(=O)=O)cc1Cl
Second: CC1CCCC1n1ncc(-c2ccc(S(C)(=O)=O)cc2)c(-c2ccc(F)cc2)c1=O (centres undefined)
The melting point of the first is higher: 182 to 183 °C for the first, 180 to 181 °C for the second.

First: CC(C)(O)c1ccc(-c2ccc3nnn(Cc4ccc5ncccc5c4)c3n2)cc1F
Second: CC(C)CCc1cc2nnc(-c3ccccc3F)n2nc1OCc1ncnn1C
The melting point of the first is lower: 85 to 89 °C for the first, 103 to 105 °C for the second.

Compared with `Oc1ccccc1CNC1CCN(Cc2ccccc2)CC1`, `O=C(O)CCc1cc(C=Nc2ccccc2O)c(O)c(C=Nc2ccccc2O)c1` is higher in melting point: 92.5 to 93 °C for the first, 204 to 205 °C for the second.

First: N#Cc1c[nH]c2ncnc(N3CCCCC3)c12
Second: COC(=O)CC1CC(c2ccc(C#N)cn2)=NO1 (centres undefined)
The melting point of the first is higher: 209 to 211 °C for the first, 97 to 98 °C for the second.

Compared with `CC(C)Cn1cc(C(N)=O)c(N)n1`, `CCOC(=O)c1cc(CC)sc1Nc1ccccc1N` is lower in melting point: 154 to 158 °C for the first, 50 to 52 °C for the second.

First: CC(=O)c1ccc2c(c1)CCS2(=O)=O
Second: O=c1[nH]c(-c2ccccc2)cn1CCO
The melting point of the first is lower: 54 to 56 °C for the first, 203 to 205 °C for the second.

Compared with `COC1=NS(=O)(=O)N=C1OC`, `CC(C)(C)c1cc(C=C(C#N)c2ccccn2)cc(C(C)(C)C)c1` is lower in melting point: 200 to 202 °C for the first, 90 to 93 °C for the second.

For `OCCN1CCN(CC2CNCCO2)CC1` (centres undefined), the melting point was 73 to 75.5 °C.
